Key:
Wistar rats = assay: Intravenous bolus of exendin-4 or GLP-1, plasma insulin in fasted anesthetized rats; format: in vivo, rat; settings: for time by which insulin levels return to baseline: 0.4 nmol/kg iv bolus; for urine output during the study: iv bolus, not quantitated
Procedure: Protocols. Wistar rats were fasted overnight. Following anesthesia with 50 mg/kg pentobarbital, a catheter was placed in the femoral artery for blood sampling. A bolus of either exendin-4 or GLP-1 was given into the saphenous vein (iv) over 30 sec to 12 animals, while a bolus of normal saline (NaCl) was given to the other six. The order of the injections was rotated. Blood (taken at −5, 0, 2, 5, 15, 30, 60, 120, and 180 min) was drawn into heparinized tubes containing EDTA and aprotinin for insulin determination (See Example 1). Animals were acclimated to the facility for at least 2 days.
Assays. Plasma glucose was measured by the glucose oxidase method (Wang et al., 1997). Insulin was measured by RIA as previously described (See Example 1). Hb A1c was assayed using a BIO-RAD (Herculas Calif.) DiaSTAT machine which uses low pressure cation exchange chromatography in conjunction with gradient elution to separate hemoglobin subtypes and variants from hemolyzed blood. The separated hemoglobin fractions were monitored by means of absorption of light at 415 nm.
Statistical methods. All results are given as mean±SEM. T tests were based on the results of an F test that looked at the equality of variance of the two means. […] For determination of the EC50 the basal plasma insulin levels were subtracted and the remaining activity at each concentration was expressed as a percent of the maximal activity (achieved by an excess of peptide). This was then transformed into a logit format where logit=ln (% activity/[100-% activity]) and was plotted as a function of the log concentration of the compound.

pancreata = assay: Proliferation and differentiation of pancreatic cells after GLP-1 infusion or exendin-4 injection; format: in vivo, rat; settings: for total number of insulin positive cells: GLP-1 continuous infusion or exendin-4 repeated ip injection for at least two days; for time of maximal differentiation effect: GLP-1 continuous infusion, exendin-4 daily bolus; for persistence of increased number of insulin producing cells after treatment is discontinued: rat, in vivo
Procedure: Exendin-4, in contrast, was administered intraperitoneally one time daily for five days according to the protocol of Example 2.

AR42J cells [1] = assay: Intracellular cAMP in AR42J cells; format: cell-based, rat; settings: 1 h; GLP-1 0.1 to 100 nM, IBMX 100 nM, CCK 0.1 to 100 nM, exendin-4 0.1 to 10 nM
Procedure: Measurement of cAMP. Cells were grown in 12-well dishes and treated with hormones and reagents±IBMX as described above. They were then washed 3 times in ice-cold PBS and lysed with 1 ml ice-cold […] perchloric acid. The lysates (950 μl) were transferred to microcentrifuge tubes and the pH adjusted to 7.0 using 5 M K2CO3. After centrifugation for 5 min at 10^4 rpm, the supernatant was vacuum dried, and then recovered in 200 μl Tris/EDTA buffer. After addition of 0.15 mM Na2CO3 (50 μl) and 0.15 mM ZnSO^4 (50 μl), followed by incubation for 15 min on ice, the salt precipitate was removed by centrifugation for 15 min at 3.5×10^3 rpm and 50 μl of supernatant was assayed using a cAMP [^3] assay kit (Amersham Corp., Arlington Heights, Ill.), (Steiner et al., 1972).

AR42J cells [2] = assay: Immunocytochemistry of insulin- and glucagon-positive AR42J cells; format: cell-based, rat
Procedure: Cell culture. AR42J cells were maintained in Dulbecco's modified Eagle's medium (DMEM) supplemented with 10% fetal calf serum (FBS), 100 IU/ml penicillin, 100 μg/ml streptomycin and 2 mM glutamine. Cells from passage 23–35 were used throughout this study. Cells were routinely plated at a density of about 10^5 cells/ml in 12-well cluster dishes or on coverslips and incubated in a humidified incubator at 37° C. with 95% air and 5% CO2.
Immunocytochemistry analysis. Cells were cultured on glass coverslips, washed with phosphate buffered saline (PBS) to remove serum, and fixed with 0.5% glutaraldehyde in PBS. Cells were permeabilized with 0.2% Triton X-100 for 5 min and the rest of the procedure was carried out at room temperature in a humidified chamber. Suction was used to remove reagents between each step but drying of specimens was avoided. Sufficient reagent was used to cover each specimen (approximately 1 or 2 drops was usually adequate). The coverslips were incubated in 0.3% H2O2 in PBS for 30 min to quench endogenous peroxidase activity and washed in PBS×3 times, followed by incubation with 2% goat serum in PBS for 30 min to block non-specific binding of IgG. Excess serum was removed by blotting. The specific primary polyclonal antisera (anti-insulin 1:300; anti-glucagon 1:300) were used. Antibody was diluted in PBS containing 1% goat serum. This was applied to the coverslip and incubated at room temperature for 1 h. The coverslips were washed ×3 times in PBS, each time for 5 min, then incubated with biotinylated second antibody for 1 h and washed ×3 times with PBS. Avidin-biotin-peroxidase complex in PBS was applied for 30 min. Immunoperoxidase labeling was performed with a Vectostain ABC kit (Vector Labs, Burlingame, Calif.). After extensive washing in PBS for 4–5 times (each 5 min), the coverslips were incubated in diaminobenzidine tetrahydrochloride (DAB) in PBS, with 0.01% hydrogen peroxide for 3 min. The reaction was stopped by washing the coverslips in PBS and examined under a light microscope. To confirm specific staining, samples incubated with preabsorbed primary antibody were used as negative control, and the insulin producing cell line RIN 1046-38 cells were used as positive control for our experiments. The avidin-biotin-peroxidase (ABC) procedure was performed according to methods known in the art (Hsu et al., 1981).

ERK = assay: MAP kinase (ERK) activity in AR42J cells; format: cell-based, rat; settings: 3 days; for ERK (MAP kinase) activity: GLP-1 10 nM, exendin-4 0.1 nM
Procedure: MAP Kinase Activity. After treatment, 60 mm dishes of 80% confluent cells were lysed at 4° C. in lysis buffer (in mM): 50 TRIS-HCl, PH 8, 150 NaCl, 5 EDTA, 1% NP-40, 0.25% sodium deoxycholate, 1 NaF, 10 sodium pyrophosphate, 0.1 PMSF, 1 sodium orthovanadate, 20 μg/ml aprotinin, and 10 μg/ml leupeptin. The cell lysate was clarified by centrifugation at 16,000×g at 4° C. for 20 min. The clarified cell lysate was immunoprecipitated overnight at 4° C., rotating with 4.5 μg of ERK1-CT antibody and 40 μl of packed protein G+protein A agarose resin (Oncogene Research Product, Cambridge, Mass.). The immune pellet was assayed for MAPK activity using MBP as the substrate. MBP (18.6 μg) was phosphorylated at 20° C. for 10 min in a final volume of 60 μl containing 20 mM Hepes, PH 7.4, 10 mM MgCl2, 1 mM DTT, 20 uM unlabeled ATP and 40 μCi (3,000 Ci/mmol) [^32P]-ATP. The reaction was terminated by the addition of 25 μl of 3× Laemmli sample buffer and heating at 70° C. for 10 min. MAPK activity was assessed by SDS-PAGE and auto-radiography. The autoradiograms were quantified by densitometry.

[3] = 10 nM GLP-1 or 0.1 nM exendin-4, 3 days

Question: `CC[C@H](C)[C@H](NC(=O)[C@H](Cc1ccccc1)NC(=O)[C@H](CCC(=O)O)NC(=O)[C@H](CCCCN)NC(=O)[C@H](C)NC(=O)[C@H](C)NC(=O)[C@H](CCC(N)=O)NC(=O)CNC(=O)[C@H](CCC(=O)O)NC(=O)[C@H](CC(C)C)NC(=O)[C@H](Cc1ccc(O)cc1)NC(=O)[C@H](CO)NC(=O)[C@H](CO)NC(=O)[C@@H](NC(=O)[C@H](CC(=O)O)NC(=O)[C@H](CO)NC(=O)[C@@H](NC(=O)[C@H](Cc1ccccc1)NC(=O)[C@@H](NC(=O)CNC(=O)[C@H](CCC(=O)O)NC(=O)[C@H](C)NC(=O)[C@@H](N)Cc1c[nH]cn1)[C@@H](C)O)[C@@H](C)O)C(C)C)C(=O)N[C@@H](C)C(=O)N[C@@H](Cc1c[nH]c2ccccc12)C(=O)N[C@@H](CC(C)C)C(=O)N[C@H](C(=O)N[C@@H](CCCCN)C(=O)NCC(=O)N[C@@H](CCCNC(=N)N)C(N)=O)C(C)C` [GLP-1] was tested. Which “time by which insulin levels return to baseline” value (Wistar rats) did it give?
Answer: Its value is at most 10 min.

Question: And the “urine output during the study” value (Wistar rats)?
Answer: The value was “urinated little if any”.

Question: What about the “total number of insulin positive cells” value (pancreata) of the same compound?
Answer: The value was “increase in total number of insulin positive cells”.

Question: What about the “time of maximal differentiation effect” value (pancreata) of the same compound?
Answer: The value was “seven days”.

Question: What about the “earliest time at which differentiation effect was observed” value (pancreata; continuous infusion) of the same compound?
Answer: Its value is 1 days.

Question: And the “cells in treated pancreata positive for PCNA” value (pancreata; continuous infusion, five days)?
Answer: The value was “Approximately 20%”.

Question: What about the “persistence of increased number of insulin producing cells after treatment is discontinued” value (pancreata) of the same compound?
Answer: Its value is “at least two weeks”.

Question: And the “intracellular cAMP levels” value (AR42J cells [1])?
Answer: Its value is “not altered”.

Question: And the “AR42J cells converted into insulin-positive cells” value (AR42J cells [2]; 1 nM GLP-1, 3 days)?
Answer: The value was about 10%.

Question: What about the “AR42J cells converted into insulin-positive cells” value (AR42J cells [2]; [3]) of the same compound?
Answer: The value was about 25%.

Question: And the “treated AR42J cells glucagon positive” value (AR42J cells [2]; 48 h, GLP-1 (10 nM))?
Answer: Its value is 20%.

Question: And the “treated AR42J cells insulin-positive” value (AR42J cells [2]; 48 h, GLP-1 (10 nM))?
Answer: The value was about 6%.

Question: What about the “treated cells containing glucagon” value (AR42J cells [2]; 72 h, GLP-1 (10 nM)) of the same compound?
Answer: The value was “fully half”.

Question: And the cells remaining insulin-positive (AR42J cells [2]; for at least 7 days, GLP-1 (10 nM))?
Answer: Its cells remaining insulin-positive is about 25%.

Question: What about the “ERK (MAP kinase) activity” value (ERK) of the same compound?
Answer: Its value is “markedly increased”.

Question: For exendin-4, which “maximal insulin response compared with GLP-1” value (Wistar rats; 0.4 nmol/kg iv) is on record?
Answer: Its value is “approximately doubled”.

Question: And the “time by which insulin levels return to baseline” value (Wistar rats)?
Answer: Its value is at most 60 min.

Question: And the “urine output during the study” value (Wistar rats)?
Answer: Its value is “obvious increase in urine output”.

Question: And the “total number of insulin positive cells” value (pancreata)?
Answer: The value was “increase in total number of insulin positive cells”.

Question: And the “time of maximal differentiation effect” value (pancreata)?
Answer: The value was “seven days”.

Question: What about the “persistence of increased number of insulin producing cells after treatment is discontinued” value (pancreata) of the same compound?
Answer: The value was “at least two weeks”.

Question: And the “intracellular cAMP levels” value (AR42J cells [1])?
Answer: The value was “did not alter”.

Question: What about the “AR42J cells converted into insulin-positive cells” value (AR42J cells [2]; [3]) of the same compound?
Answer: Its value is about 25%.

Question: What about the “lowest concentration at which some insulin-containing cells were seen” value (AR42J cells [2]; AR42J cells) of the same compound?
Answer: The value was 10^−11 molar.

Question: What about the “potency on ERK activation relative to GLP-1” value (ERK) of the same compound?
Answer: Its value is “about 100 fold”.

Question: And the “ERK (MAP kinase) activity” value (ERK)?
Answer: The value was “markedly increased”.
